Like-named read-outs stand apart in the source and are kept apart here. Where a SMILES comes first, the peptide text is derived from it. [ ]: non-standard residue; d: D form. Hmp(2R,3S) = CC[C@H](C)[C@@H](O)C(=O)O; Sta = CC(C)C[C@H](N)[C@@H](O)CC(=O)O; dNMeF = CN[C@H](Cc1ccccc1)C(=O)O; NMeQ = CN[C@@H](CCC(N)=O)C(=O)O
Columns and labels:
[1] = tested on: CatE; conditions: cited from earlier work
[2] = tested on: MDA-MB-231 cells; assay: MTT cell viability assay; type: cell-based, human; conditions: MDA-MB-231, 48 h treatment

Row | IC50 (cell viability) [2] [µg/mL] | Molecule | preference for CatE compared to CatD [1] | preference for CatE compared to CatD ([1]; listed as grassystatin C) [fold]
1 |  | CC[C@H](C)[C@H](NC(=O)C[C@H](O)[C@H](CC(C)C)NC(=O)[C@H](CCC(N)=O)N(C)C(=O)[C@H](CC(C)C)NC(=O)[C@H](O)[C@@H](C)CC)C(=O)NCC(=O)N(C)[C@H](Cc1ccccc1)C(=O)N1CCC[C@H]1C(=O)OC [Grassystatin C, grassystatin C] ({Hmp(2R,3S)}-L[NMeQ][Sta]IG[dNMeF]P-OMe) | about 30 fold | > 30
2 | 0.025 | TRAIL: tumor necrosis factor-related apoptosis-inducing ligand |  | 

Source: PMC12024474 (RSC Medicinal Chemistry, 2025)
